Data published in patent US20250026778A1 (TIUMBIO CO., LTD., priority 2021, published 2025).
Read-outs that look alike come from different tables or passages of the source.

Target: T1, his-galectin-3 (Homo sapiens, UniProt P17931)
T1 construct: purchased Abcam
Experiment: TR-FRET assay (in vitro galectin-3 binding inhibitory activity test)
Conditions: compound at 20 μM, 60 nM his-galectin-3, 15 nM biotin-ASF
Method in brief: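 Compound is premixed with his-galectin-3 (60 nM final), then biotin-ASF (15 nM), Tb anti-His antibody (2 nM) and streptavidin-d2 (20 nM) are added. After at least 3.5 hours at RT in HEPES/NaCl buffer with Tween 20 and BSA, TR-FRET is read at 615/665 nm. DMSO serves as the uninhibited control, ASF omission as background.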

[1] = Table 1, read-out: % Inhibitory activity (at 20 μM)
[2] = Table 2, read-out: % Inhibitory activity (at 20 μM)
[3] = read-out: % Inhibitory activity (at 20 μM), Table 2
[4] = read-out: % Inhibitory activity (at 20 μM), Table 1

T1 sequence (P17931 whole entry): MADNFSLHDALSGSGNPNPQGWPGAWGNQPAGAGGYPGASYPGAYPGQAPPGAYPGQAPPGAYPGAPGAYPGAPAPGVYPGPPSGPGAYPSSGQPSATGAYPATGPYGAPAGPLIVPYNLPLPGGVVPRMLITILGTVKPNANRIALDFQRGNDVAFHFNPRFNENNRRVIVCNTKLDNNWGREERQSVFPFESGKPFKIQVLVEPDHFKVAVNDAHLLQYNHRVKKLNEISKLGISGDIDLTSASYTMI

| inhibition at 20 µM [1] [%] | inhibition at 20 µM [2] [%] | Compound | further results |
| --- | --- | --- | --- |
| < 25 | – | OC[C@H]1O[C@]2(OCC[C@H]2NCc2ccccc2O)[C@H](O)[C@@H](n2cc(-c3cc(F)c(F)c(F)c3)nn2)[C@H]1O [Compound A125, (4R,5S,7R,8R,9S,10R)-4-((2-hydroxybenzyl)amino)-7-(hydroxymethyl)-9-(4-(3,4,5-trifluorophenyl)-1H-1,2,3-triazol-1-yl)-1,6-dioxaspiro[4.5]decane-8,10-diol] | – |
| – | > 75 | O=C(N[C@@H]1CCO[C@]12O[C@H](CO)[C@H](O)[C@H](n1cc(-c3cc(F)c(F)c(F)c3)nn1)[C@H]2O)c1ccc(Br)c2ccccc12 [Compound A176, 4-bromo-N-((4R,5S,7R,8R,9S,10R)-8,10-dihydroxy-7-(hydroxymethyl)-9-(4-(3,4,5-trifluorophenyl)-1H-1,2,3-triazol-1-yl)-1,6-dioxaspiro[4.5]decan-4-yl)-1-naphthamide] | – |
| – | – | OC[C@H]1O[C@]2(OCC[C@H]2n2cc(-c3ccccc3Cl)nn2)[C@H](O)[C@@H](n2cc(-c3cc(F)c(F)c(F)c3)nn2)[C@H]1O [Compound A204, (4R,5S,7R,8R,9S,10R)-4-(4-(2-chlorophenyl)-1H-1,2,3-triazol-1-yl)-7-(hydroxymethyl)-9-(4-(3,4,5-trifluorophenyl)-1H-1,2,3-triazol-1-yl)-1,6-dioxaspiro[4.5]decane-8,10-diol] | inhibition at 20 µM [3]: < 25% |
| 50 to 75 | – | OC[C@H]1O[C@]2(OCC[C@H]2NCc2cccc(F)c2)[C@H](O)[C@@H](n2cc(-c3cc(F)c(F)c(F)c3)nn2)[C@H]1O [Compound A62, (4R,5S,7R,8R,9S,10R)-4-((3-fluorobenzyl)amino)-7-(hydroxymethyl)-9-(4-(3,4,5-trifluorophenyl)-1H-1,2,3-triazol-1-yl)-1,6-dioxaspiro[4.5]decane-8,10-diol] | – |
| – | > 75 | O=C(N[C@@H]1CCO[C@]12O[C@H](CO)[C@H](O)[C@H](n1cc(-c3cc(F)c(F)c(F)c3)nn1)[C@H]2O)c1coc2ccccc12 [Compound A161, N-((4R,5S,7R,8R,9S,10R)-8,10-dihydroxy-7-(hydroxymethyl)-9-(4-(3,4,5-trifluorophenyl)-1H-1,2,3-triazol-1-yl)-1,6-dioxaspiro[4.5]decan-4-yl)benzofuran-3-carboxamide] | – |
| < 25 | – | O=C(O[C@@H]1[C@@H](n2cc(-c3cc(F)c(F)c(F)c3)nn2)[C@@H](O)[C@@H](CO)O[C@@]12CCCO2)c1cccc(C(F)(F)F)c1 [Compound A73, (5S,7R,8R,9S,10R)-8-hydroxy-7-(hydroxymethyl)-9-(4-(3,4,5-trifluorophenyl)-1H-1,2,3-triazol-1-yl)-1,6-dioxaspiro[4.5]decan-10-yl 3-(trifluoromethyl)benzoate] | – |
| – | 50 to 75 | O=C(N[C@@H]1CCO[C@]12O[C@H](CO)[C@H](O)[C@H](n1cc(-c3cc(F)c(F)c(F)c3)nn1)[C@H]2O)c1cccc2cccnc12 [Compound A244, N-((4R,5S,7R,8R,9S,10R)-8,10-dihydroxy-7-(hydroxymethyl)-9-(4-(3,4,5-trifluorophenyl)-1H-1,2,3-triazol-1-yl)-1,6-dioxaspiro[4.5]decan-4-yl)quinoline-8-carboxamide] | – |
| – | – | O=C(O[C@@H]1[C@@H](n2cc(-c3cc(F)c(F)c(F)c3)nn2)[C@@H](O)[C@@H](CO)O[C@@]12CCCCO2)c1cccnc1 [Compound A61, (2R,3R,4S,5R,6S)-3-hydroxy-2-(hydroxymethyl)-4-(4-(3,4,5-trifluorophenyl)-1H-1,2,3-triazol-1-yl)-1,7-dioxaspiro[5.5]undecan-5-yl nicotinate] | inhibition at 20 µM [4]: 25 to 50% |
| – | – | O=C1CCCC2(O[C@H](CO)[C@H](O)[C@H](n3cc(-c4cc(F)c(F)c(F)c4)nn3)[C@H]2O)N1CC(F)F (stereo partly drawn) [Compound A94, (2R,3R,4S,5R)-7-(2,2-difluoroethyl)-3.5-dihydroxy-2-(hydroxymethyl)-4-(4-(3,4,5-trifluorophenyl)-1H-1,2,3-triazol-1-yl)-1-oxa-7-azaspiro[5.5]undecan-8-one] | % Inhibitory activity (at 20 μM) (Table 1): D (inhibition rate was less than 25%) |
| < 25 | – | O=C(N[C@@H]1CCO[C@]12O[C@H](CO)[C@H](O)[C@H](n1cc(-c3cc(F)c(F)c(F)c3)nn1)[C@H]2O)c1ccc(-c2ccccc2)cc1 [Compound A131, N-((4R,5S,7R,8R,9S,10R)-8,10-dihydroxy-7-(hydroxymethyl)-9-(4-(3,4,5-trifluorophenyl)-1H-1,2,3-triazol-1-yl)-1,6-dioxaspiro[4.5]decan-4-yl)-[1.1′ biphenyl]-4-carboxamide] | – |
| – | > 75 | O=C(N[C@@H]1CCO[C@]12O[C@H](CO)[C@H](O)[C@H](n1cc(-c3cc(F)c(F)c(F)c3)nn1)[C@H]2O)c1csc2ccccc12 [Compound A157, N-((4R,5S,7R,8R,9S,10R)-8,10-dihydroxy-7-(hydroxymethyl)-9-(4-(3,4,5-trifluorophenyl)-1H-1,2,3-triazol-1-yl)-1,6-dioxaspiro[4.5]decan-4-yl)benzo[b]thiophene-3-carboxamide] | – |
| – | > 75 | O=C(N[C@@H]1CCO[C@]12O[C@H](CO)[C@H](O)[C@H](n1cc(-c3cc(F)c(F)c(F)c3)nn1)[C@H]2O)c1cccc2c(Cl)cccc12 [Compound A169, 5-chloro-N-((4R,5S,7R,8R,9S,10R)-8,10-dihydroxy-7-(hydroxymethyl)-9-(4-(3,4,5-trifluorophenyl)-1H-1,2,3-triazol-1-yl)-1,6-dioxaspiro[4.5]decan-4-yl)-1-naphthamide] | – |
| – | 50 to 75 | O=C(N[C@@H]1CCO[C@]12O[C@H](CO)[C@H](O)[C@H](n1cc(-c3cc(F)c(F)c(F)c3)nn1)[C@H]2O)c1cccc2scnc12 [Compound A194, N-((4R,5S,7R,8R,9S,10R)-8,10-dihydroxy-7-(hydroxymethyl)-9-(4-(3,4,5-trifluorophenyl)-1H-1,2,3-triazol-1-yl)-1,6-dioxaspiro[4.5]decan-4-yl)benzo[d]thiazole-4-carboxamide] | – |
| – | – | O=C(N[C@@H]1CCO[C@]12O[C@H](CO)[C@H](O)[C@H](n1cc(-c3cc(F)c(F)c(F)c3)nn1)[C@H]2O)c1ccccc1Oc1ccccc1 [Compound A171, N-((4R,5S,7R,8R,9S,10R)-8,10-dihydroxy-7-(hydroxymethyl)-9-(4-(3,4,5-trifluorophenyl)-1H-1,2,3-triazol-1-yl)-1,6-dioxaspiro[4.5]decan-4-yl)-2-phenoxybenzamide] | inhibition at 20 µM [3]: 25 to 50% |
| 25 to 50 | – | OC[C@H]1O[C@]2(OCC[C@H]2NCc2cccc(Br)c2)[C@H](O)[C@@H](n2cc(-c3cc(F)c(F)c(F)c3)nn2)[C@H]1O [Compound A102, (4R,5S,7R,8R,9S,10R)-4-((3-bromobenzyl)amino)-7-(hydroxymethyl)-9-(4-(3,4,5-trifluorophenyl)-1H-1,2,3-triazol-1-yl)-1,6-dioxaspiro[4.5]decane-8,10-diol] | – |
| – | – | CC(O[C@@H]1[C@@H](n2cc(-c3cc(F)c(F)c(F)c3)nn2)[C@@H](O)[C@@H](CO)O[C@@]12CCCCO2)C(=O)O (stereo partly drawn) [Compound A55, 2-(((2R,3R,4S,5R,6S)-3-hydroxy-2-(hydroxymethyl)-4-(4-(3,4,5-trifluorophenyl)-1H-1,2,3-triazol-1-yl)-1,7-dioxaspiro[5.5]undecan-5-yl)oxy)propanoic acid] | inhibition at 20 µM [4]: 50 to 75%; inhibition at 20 µM (read-out: % Inhibitory activity (at 20 μM), Table 3, found values): 60% |
| – | 50 to 75 | Cn1cc(C(=O)N[C@@H]2CCO[C@]23O[C@H](CO)[C@H](O)[C@H](n2cc(-c4cc(F)c(F)c(F)c4)nn2)[C@H]3O)c2cc(Cl)ccc21 [Compound A233, 5-chloro-N-((4R,5S,7R,8R,9S,10R)-8,10-dihydroxy-7-(hydroxymethyl)-9-(4-(3,4,5-trifluorophenyl)-1H-1,2,3-triazol-1-yl)-1,6-dioxaspiro[4.5]decan-4-yl)-1-methyl-1H-indole-3-carboxamide] | – |
| < 25 | – | O=C(Cc1ccc(-c2ccccc2)cc1)N[C@@H]1CCO[C@]12O[C@H](CO)[C@H](O)[C@H](n1cc(-c3cc(F)c(F)c(F)c3)nn1)[C@H]2O [Compound A135, 2-([1,1′-biphenyl]-4-yl)-N-((4R,5S,7R,8R,9S,10R)-8,10-dihydroxy-7-(hydroxymethyl)-9-(4-(3,4,5-trifluorophenyl)-1H-1,2,3-triazol-1-yl)-1,6-dioxaspiro[4.5]decan-4-yl)acetamide] | – |
| 50 to 75 | – | O=C(N[C@@H]1CCO[C@]12O[C@H](CO)[C@H](O)[C@H](n1cc(-c3cc(F)c(F)c(F)c3)nn1)[C@H]2O)c1ccc2cc(Cl)ccc2c1 [Compound A149, 6-chloro-N-((4R,5S,7R,8R,9S,10R)-8,10-dihydroxy-7-(hydroxymethyl)-9-(4-(3,4,5-trifluorophenyl)-1H-1,2,3-triazol-1-yl)-1,6-dioxaspiro[4.5]decan-4-yl)-2-naphthamide] | – |
| – | > 75 | O=C(N[C@@H]1CCO[C@]12O[C@H](CO)[C@H](O)[C@H](n1cc(-c3cc(F)c(F)c(F)c3)nn1)[C@H]2O)c1csc2ccc(Cl)cc12 [Compound A177, 5-chloro-N-((4R,5S,7R,8R,9S,10R)-8,10-dihydroxy-7-(hydroxymethyl)-9-(4-(3,4,5-trifluorophenyl)-1H-1,2,3-triazol-1-yl)-1,6-dioxaspiro[4.5]decan-4-yl)benzo[b]thiophene-3-carboxamide] | – |
| – | – | OC[C@H]1O[C@]2(OCC[C@H]2n2cc(-c3ccccc3)nn2)[C@H](O)[C@@H](n2cc(-c3cc(F)c(F)c(F)c3)nn2)[C@H]1O [Compound A154, (4R,5S,7R,8R,9S,10R)-7-(hydroxymethyl)-4-(4-phenyl-1H-1,2,3-triazol-1-yl)-9-(4-(3,4,5-trifluorophenyl)-1H-1,2,3-triazol-1-yl)-1,6-dioxaspiro[4.5]decane-8,10-diol] | inhibition at 20 µM [3]: 25 to 50% |
